Experimental data taken from US7892755B2, “Screening method” (Takeda Pharmaceutical Company Limited, priority 2004, dated 2011).

Target: GPR35 (Homo sapiens, UniProt Q9HC97, S294R)
Test: Changes in intracellular calcium levels on FLIPR, CHO cell line stably co-expressing human GPR35 and Gα16
Format: cell-based
Set-up: expressed in transfected cells
Protocol: The Gα16-stably expressed cell line (Gα16/CHO cell line) as a host cell was prepared by transfecting the Gα16 expression vector (Guthrie cDNA Resource Center) into CHO cells in a conventional manner and incubating at 37° C. under 5% CO2 in αMEM medium (containing nucleic acid; Invitrogen) supplemented with 10% fetal calf serum (Invitrogen), 50 units/ml penicillin/50 ug/ml streptomycin (CAMBREX) and 1 mg/ml geneticin (Invitrogen). The cells that were incubated for 2 days in αMEM medium (containing nucleic acid) supplemented only with 10% fetal calf serum charged in a 75 cm^2 flask were used for the transfection. The transfection was carried out using Lipofectamine reagent (Invitrogen) by a modification of the protocol attached to the reagent. First, 2 centrifuge tubes each having a 15 ml volume were prepared and 600 μl each of Opti-MEM medium (Invitrogen) was dispensed in each tube. Next, 4.8 μg of the expression vector was charged in one tube and in another tube 36 μl of Lipofectamine reagent was charged, which were mixed together. The mixture was settled for 20 minutes at room temperature. […] The cells obtained were counted and diluted with αMEM medium (containing no nucleic acid; Invitrogen) supplemented only with 10% dialyzed fetal calf serum to have 0.3, 1.5 and 7.5 cells per 100 μl of the medium. […]

Sequence of GPR35 (Q9HC97 whole entry S294R): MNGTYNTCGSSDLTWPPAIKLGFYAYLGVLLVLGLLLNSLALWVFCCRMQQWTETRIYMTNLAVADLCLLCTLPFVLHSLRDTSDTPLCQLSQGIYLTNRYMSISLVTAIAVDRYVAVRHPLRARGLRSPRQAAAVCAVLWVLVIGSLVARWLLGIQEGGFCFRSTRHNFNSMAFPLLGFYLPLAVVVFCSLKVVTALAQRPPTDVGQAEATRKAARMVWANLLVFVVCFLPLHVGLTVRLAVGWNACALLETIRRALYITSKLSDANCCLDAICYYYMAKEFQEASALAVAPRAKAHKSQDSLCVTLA

**Q.** O=C1N=c2cc([N+](=O)[O-])c([N+](=O)[O-])cc2=NC1=O [DNQX, 6,7-dinitroquinoxaline-2,3-dione] was tested. Which intracellular calcium levels did it give?
**A.** Its intracellular calcium levels is “increased”.
